Data: patent publication US10385065B2, “Antibacterial compounds” (priority 2014, dated 2019)
Converted amounts (≈) assume the structure as drawn. Where two headings read alike, the source gives them in different places.

Key:
[1] = system: Legionella pneumophila ATCC 33152; experiment: microbe, parasite or virus in culture; format: cell-based; conditions: ATCC33152, 48 h, read-out: MIC Legionella pneumophila ATCC 33152
[2] = system: Neisseria meningitidis ATCC 13090; experiment: MIC, N. meningitidis ATCC 13090; format: cell-based; conditions: ATCC13090, Table 4, 24 h incubation
[3] = system: S. aureus NRS108; experiment: MIC, S. aureus NRS108; format: cell-based; conditions: Staphylococcus aureus, MRSA / NRS 108, read-out: MIC S. aureus NRS108
[4] = system: S. aureus NRS271; experiment: MIC, S. aureus NRS271; format: cell-based; conditions: Staphylococcus aureus, MRSA / NRS 271, read-out: MIC S. aureus NRS271
[5] = system: S. aureus NRS384 (MRSA - fluoroquinolone susceptible); experiment: MIC, S. aureus NRS384; format: cell-based; conditions: Staphylococcus aureus, read-out: MIC S. aureus NRS384
[6] = system: Mycobacterium smegmatis ATCC 19420; experiment: MIC, M. smegmatis ATCC 19420; format: cell-based; conditions: Mycolicibacterium smegmatis, ATCC19420; Table 4, 72 h incubation
[7] = system: all strains of S. aureus tested; experiment: Antibacterial susceptibility, all S. aureus strains tested; format: cell-based, Staphylococcus aureus; conditions: including strains resistant to fluoroquinolone and other antibiotics
[8] = system: Moraxella catarrhalis ATCC 25240; experiment: MIC, M. catarrhalis ATCC 25240; format: cell-based; conditions: ATCC25240, Table 4
[9] = system: human hepatic cell line (HepG2 ATCC HB-8065); experiment: Human cell viability assay (CellTiter-Glo), HepG2; format: cell-based; conditions: read-out: IC50 values against HepG2
Procedure, shortened: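 HepG2 seeded at 20,000 cells/well, then after 24 h given two-fold serial dilutions (1-128 μg/mL, 1% DMSO) in DMEM with 0.001% FBS and 0.3% albumin. After 24 h at 37 °C, ATP luminescence (CellTiter-Glo) read; IC50 is the concentration halving viability.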

[10] = system: S. aureus NRS70 MRSA; experiment: MIC, S. aureus NRS70; format: cell-based; conditions: Staphylococcus aureus; Table 2
[11] = system: S. aureus VRS1 MRSA VAN resistant; experiment: MIC, S. aureus VRS1; format: cell-based; conditions: Staphylococcus aureus, Table 2
[12] = system: S. aureus NRS127 MRSA LZD resistant; experiment: MIC, S. aureus NRS127; format: cell-based; conditions: Staphylococcus aureus; Table 2
[13] = system: Staphylococcus aureus ATCC 29213; experiment: MIC, broth microdilution, S. aureus ATCC 29213; format: cell-based
[14] = system: S. aureus NRS106 (fluoroquinolone susceptible MSSA); experiment: MIC, S. aureus NRS106; format: cell-based; conditions: Staphylococcus aureus
[15] = system: S. aureus NRS107 MUP resistant; experiment: MIC, S. aureus NRS107; format: cell-based; conditions: Staphylococcus aureus, Table 2
[16] = system: S. aureus SACPX1-SP28 (MSSA - fluoroquinolone resistant); experiment: MIC, S. aureus SACPX1-SP28; format: cell-based; conditions: Staphylococcus aureus, read-out: MIC S. aureus SACPX1-SP28
[17] = system: Streptococcus pneumoniae ATCC BAA-255; experiment: MIC, S. pneumoniae ATCC BAA-255; format: cell-based; conditions: ATCCBAA255, Table 2
[18] = system: Neisseria gonorrhoeae ATCC 49226; experiment: MIC, N. gonorrhoeae ATCC 49226; format: cell-based; conditions: ATCC49226, Table 4, 24 h incubation
[19] = system: S. aureus NRS1 MRSA; experiment: MIC, S. aureus NRS1; format: cell-based; conditions: Staphylococcus aureus; Table 2; read-out: MIC S. aureus NRS1 MRSA AMG & TET resistant
[20] = system: Escherichia coli ATCC 25922; experiment: MIC, broth microdilution, E. coli ATCC 25922; format: cell-based; conditions: ATCC25922, Table 1, wild type strain
[21] = system: S. aureus NRS74; experiment: MIC, S. aureus NRS74; format: cell-based; conditions: Staphylococcus aureus, MRSA / NRS 74, read-out: MIC S. aureus NRS74
[22] = system: Enterococcus faecium ATCC 19434; experiment: MIC, E. faecium ATCC 19434; format: cell-based; conditions: ATCC19434, Table 2
[23] = system: S. epidermidis NRS101 MRSE; experiment: MIC, S. epidermidis NRS101; format: cell-based; conditions: Staphylococcus epidermidis; Table 2; read-out: MIC S. epidermidis NRS101 MRSE AMG, ERY resistant
[24] = system: Haemophilus influenzae ATCC 49247; experiment: MIC, H. influenzae ATCC 49247; format: cell-based; conditions: ATCC49247, Table 4
[25] = system: S. aureus NRS100 MRSA; experiment: MIC, S. aureus NRS100; format: cell-based; conditions: Staphylococcus aureus; Table 2
[26] = system: S. aureus SACPX1-SP25 MSSA - FQ resistant; experiment: microbe, parasite or virus in culture; format: cell-based; conditions: Staphylococcus aureus, ATCC 29213 / MSSA, read-out: MIC S. aureus SACPX1-SP25 MSSA - FQ resistant (isogenic mutant of ATCC 29213)
[27] = system: S. aureus (MRSA) ATCC 43300; experiment: MIC, S. aureus ATCC 43300; format: cell-based; conditions: Staphylococcus aureus; Table 2; read-out: MIC S. aureus (MRSA) ATCC 43300 Heterogeneous MRSA strain
[28] = system: Mycobacterium tuberculosis H37Rv; experiment: MIC, M. tuberculosis H37Rv; format: cell-based; conditions: virulent tuberculosis-causative strain
[29] = system: S. aureus VRS8; experiment: MIC, S. aureus VRS8; format: cell-based; conditions: Staphylococcus aureus, MRSA, read-out: MIC S. aureus VRS8
[30] = system: S. aureus NRS482 MRSA FQ resistant; experiment: MIC, S. aureus NRS482; format: cell-based; conditions: Staphylococcus aureus; Table 2
[31] = HepG2, 24 h incubation, tested over 1-128 μg/mL
[32] = ATCC29213, Table 1, wild type strain, read-out: MIC S. aureus ATCC 29213
[33] = ATCC 29213 / MSSA, Table 2, read-out: MIC S. aureus (MSSA) ATCC 29213 CLSI control strain

SMILES	MIC [1] [µg/mL]	MIC [2] [µg/mL]	MIC [8] [µg/mL]	IC50 [9, 31] [µg/mL]	MIC [10] [µg/mL]	MIC [11] [µg/mL]	MIC [12] [µg/mL]	MIC [13, 32] [µg/mL]	MIC [13, 33] [µg/mL]	MIC [15] [µg/mL]	MIC [17] [µg/mL]	MIC [18] [µg/mL]	MIC [19] [µg/mL]	MIC [20] [µg/mL]	MIC [22] [µg/mL]	MIC [23] [µg/mL]	MIC [24] [µg/mL]	MIC [25] [µg/mL]	MIC [27] [µg/mL]	MIC [30] [µg/mL]	further results
Cc1c(-c2cc(F)c(N)cc2F)ccc2c3ocnc3c(=O)n(C3CC3)c12 [Compound 1, 7-(4-amino-2,5-difluoro-phenyl)-5-cyclopropyl-6-methyl-oxazolo[4,5-c]quinolin-4-one]	< 1	< 1	< 1	> 100	< 1	< 1	< 1	< 1	< 1	< 1	1 to 10 (≈ 2.72 to 27.2 µM)	< 1	< 1	> 100	> 100	< 1	< 1	< 1	< 1	< 1	MIC [3]: < 1 µg/mL; MIC [4]: < 1 µg/mL; MIC [5]: < 1 µg/mL; MIC [6]: < 1 µg/mL; activity against all strains of S. aureus tested [7]: excellent activity; MIC [14]: < 1 µg/mL; MIC [16]: < 1 µg/mL; MIC [21]: < 1 µg/mL; MIC ([26]; Table 2): < 1 µg/mL; MIC [28]: < 8 µg/mL; MIC [29]: < 1 µg/mL
Cc1nc2c(=O)n(C3CC3)c3c(C)c(-c4ccc(CN)c(F)c4)ccc3c2o1 [Compound 36, 7-[4-(aminomethyl)-3-fluoro-phenyl]-5-cyclopropyl-2,6-dimethyl-oxazolo[4,5-c]quinolin-4-one]	< 1	< 1	1 to 10 (≈ 2.65 to 26.5 µM)	> 100	< 1	10 to 100 (≈ 26.5 to 265 µM)	1 to 10 (≈ 2.65 to 26.5 µM)	< 1	< 1	1 to 10 (≈ 2.65 to 26.5 µM)	1 to 10 (≈ 2.65 to 26.5 µM)	10 to 100 (≈ 26.5 to 265 µM)	> 100	1 to 10 (≈ 2.65 to 26.5 µM)	10 to 100 (≈ 26.5 to 265 µM)	10 to 100 (≈ 26.5 to 265 µM)	1 to 10 (≈ 2.65 to 26.5 µM)	1 to 10 (≈ 2.65 to 26.5 µM)	< 1	1 to 10 (≈ 2.65 to 26.5 µM)	MIC [26]: 1 to 10 µg/mL (≈ 2.65 to 26.5 µM)
Cc1c(-c2ccc3[nH]ncc3c2)ccc2c3ocnc3c(=O)n(C3CC3)c12 [Compound 39, 5-cyclopropyl-7-(1H-indazol-5-yl)-6-methyl-oxazolo[4,5-c]quinolin-4-one]	–	< 1	–	10 to 100 (≈ 28.1 to 281 µM)	< 1	< 1	< 1	< 1	< 1	< 1	< 1	< 1	< 1	1 to 10 (≈ 2.81 to 28.1 µM)	10 to 100 (≈ 28.1 to 281 µM)	< 1	< 1	< 1	< 1	< 1	MIC [6]: 1 to 10 µg/mL (≈ 2.81 to 28.1 µM); MIC [26]: < 1 µg/mL
C[C@H]1COc2c(N3CCN(C)CC3)c(F)cc3c(=O)c(C(=O)O)cn1c23 [Levofloxacin, reference compound]	< 1	< 1	< 1	> 100	< 1	10 to 100 (≈ 27.7 to 277 µM)	> 100	–	< 1	< 1	< 1	< 1	10 to 100 (≈ 27.7 to 277 µM)	–	1 to 10 (≈ 2.77 to 27.7 µM)	< 1	< 1	< 1	< 1	1 to 10 (≈ 2.77 to 27.7 µM)	MIC [26]: 1 to 10 µg/mL (≈ 2.77 to 27.7 µM)
CN[C@H](CC(C)C)C(=O)N[C@H]1C(=O)N[C@@H](CC(N)=O)C(=O)N[C@H]2C(=O)N[C@H]3C(=O)N[C@H](C(=O)N[C@H](C(=O)O)c4cc(O)cc(O)c4-c4cc3ccc4O)[C@H](O)c3ccc(c(Cl)c3)Oc3cc2cc(c3O[C@@H]2O[C@H](CO)[C@@H](O)[C@H](O)[C@H]2O[C@H]2C[C@](C)(N)[C@H](O)[C@H](C)O2)Oc2ccc(cc2Cl)[C@H]1O [Vancomycin, reference compound]	–	–	–	–	< 1	1 to 10 (≈ 0.69 to 6.9 µM)	1 to 10 (≈ 0.69 to 6.9 µM)	–	< 1	1 to 10 (≈ 0.69 to 6.9 µM)	< 1	–	1 to 10 (≈ 0.69 to 6.9 µM)	–	< 1	1 to 10 (≈ 0.69 to 6.9 µM)	10 to 100 (≈ 6.9 to 69 µM)	1 to 10 (≈ 0.69 to 6.9 µM)	1 to 10 (≈ 0.69 to 6.9 µM)	1 to 10 (≈ 0.69 to 6.9 µM)	IC50 ([9]; HepG2, 24 h): 10 to 100 µg/mL (≈ 6.9 to 69 µM); MIC ([26]; Table 2): < 1 µg/mL
